{"source": "patent US20220267376A1", "about": "“P53 ACTIVATOR PEPTIDOMIMETIC MACROCYCLES” (Merck Sharp & Dohme Corp., priority 2019, published 2022)", "key": {"[1]": {"biological_target": "T1, human MDM2 protein (amino acids 1-125) (Homo sapiens, UniProt Q00987)", "T1 sequence (Q00987 1-125 limits assumed)": "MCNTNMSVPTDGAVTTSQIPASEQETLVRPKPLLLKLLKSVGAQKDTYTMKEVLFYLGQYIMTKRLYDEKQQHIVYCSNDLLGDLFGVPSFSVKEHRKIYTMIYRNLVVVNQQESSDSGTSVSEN", "assay": "SPR, biotinylated MDM2 on streptavidin, peptide as analyte"}, "[2]": {"biological_target": "T1, human MDM2 protein (amino acids 1-125)", "assay": "fluorescence anisotropy competition: unlabeled peptide titrated against the complex of MDM2 (250 nM) and FAM-labeled 12/1 peptide (50 nM)"}, "MDM4 protein (human) [3]": {"biological_target": "MDM4 protein (human) (UniProt O15151)", "assay": "fluorescence polarization assay on MDM4 (anisotropy falls with the peptide concentration; the labeled tracer used with MDM4 is not given)"}, "MDM4 protein (human) [4]": {"biological_target": "MDM4 protein (human) (UniProt O15151)", "assay": "fluorescence polarization, MDM4"}, "[5]": {"biological_target": "T1, human MDM2 protein (amino acids 1-125)", "assay": "fluorescence polarization, MDM2"}, "[6]": {"tested_on": "Jump-In™ T-REx™ CHO-K1 BLA cells", "assay": "Tetracycline beta-lactamase reporter gene assay (counterscreen)", "format": "cell-based", "conditions": "for EC50: read-out: Counterscreen EC50 (μM) (2% FBS) 16 H, 2% FBS, 16 H"}, "HCT-116 cells": {"tested_on": "HCT-116 cells", "assay": "HCT-116 western blot analysis (p53, MDM2, p21)", "format": "cell-based", "conditions": "6.123, 12.5 and 25 μM, 4 or 24 hours", "protocol": "Preparation of compound Stock and working Solutions: 10 mM or 1 mM stock solutions of compounds were prepared in 100% DMSO. Each compound was then serially diluted in 100% DMSO and further diluted 10-fold into HPLC grade sterile water to prepare 10× working solutions in 10% DMSO/water of each compound. Depending on the required volume used in the relevant assay, compounds were added to yield final concentrations as indicated in the relevant figure with a residual DMSO concentration of 1% v/v.\nHCT116 cells (Thermo Fisher Scientific) were cultured in DMEM cell media, which was supplemented with 10% foetal calf serum (FBS) and penicillin/streptomycin. All cell lines were maintained in a 37° C. humidified incubator with 5% CO2 atmosphere. HCT116 cells were seeded into 96 well plates at a cell density of 60,000 cells per well and incubated overnight. Cells were also maintained in DMEM cell media with 10% fetal bovine serum (FBS) and penicillin/streptomycin. Cell media was then removed and replaced with cell media containing the various compounds/vehicle controls at the concentrations indicated in DMEM cell media with 2% FCS, After the stated incubation time (4 or 24 hours) cells were rinsed with PBS and then harvested in 100 μl of × NuPAGE LDS sample buffer supplied by Invitrogen (NP0008). […] Protein concentrations were measured by BCA assay (Pierce). […]"}, "MDM2": {"biological_target": "T2, MDM2 (Homo sapiens, UniProt Q00987)", "T2 construct": "GST (N); His6 (N); made in house; host or cells: E. coli BL21 (DE3) Rosetta T1R", "T2 sequence (Q00987 1-125)": "as the sequence (Q00987 1-125 limits assumed) above", "assay": "Surface plasmon resonance (SPR) binding to MDM2", "conditions": "MDM2"}, "HCT116 cells": {"tested_on": "HCT116 cells", "assay": "Lactate dehydrogenase (LDH) release assay", "format": "cell-based", "conditions": "up to 50 μM"}, "[7]": {"assay": "Circular dichroism (CD) helicity of peptide in solution", "format": "physicochemical", "conditions": "25° C."}, "MDM4": {"biological_target": "T3, MDM4 (Homo sapiens, UniProt O15151)", "T3 construct": "GST; made in house", "T3 sequence (O15151 1-490)": "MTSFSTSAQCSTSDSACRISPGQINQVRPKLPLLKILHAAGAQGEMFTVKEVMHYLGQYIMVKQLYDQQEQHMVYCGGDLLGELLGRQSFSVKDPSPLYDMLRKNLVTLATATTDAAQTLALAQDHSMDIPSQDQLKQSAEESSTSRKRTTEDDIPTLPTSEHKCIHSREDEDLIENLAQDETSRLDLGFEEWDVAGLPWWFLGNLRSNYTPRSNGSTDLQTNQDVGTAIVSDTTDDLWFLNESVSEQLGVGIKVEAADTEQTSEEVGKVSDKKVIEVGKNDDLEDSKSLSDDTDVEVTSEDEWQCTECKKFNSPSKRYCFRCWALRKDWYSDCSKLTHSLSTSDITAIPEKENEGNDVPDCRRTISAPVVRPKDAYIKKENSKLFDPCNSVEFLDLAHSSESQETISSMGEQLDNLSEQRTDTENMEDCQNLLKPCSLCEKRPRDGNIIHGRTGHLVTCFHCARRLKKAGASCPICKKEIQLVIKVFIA", "assay": "Fluorescence polarization (FP) binding to MDM4/MDMX", "conditions": "FP assay, MDM4 (MDMX)"}, "[8]": {"tested_on": "HCT116 p53 reporter cells", "assay": "p53 beta-lactamase reporter gene assay", "format": "cell-based", "conditions": "read-out: P53 activity EC50 (μM) (2% FBS) 16 H; HCT116 p53 reporter, 2% FBS, 16 H"}, "[9]": {"biological_target": "T1, human MDM2 protein (amino acids 1-125)", "assay": "fluorescence polarization competition, FAM-12/1 tracer, MDM2; FP assay: no binding, Kd capped at 10000 nM"}, "[10]": {"biological_target": "T1, human MDM2 protein (amino acids 1-125)", "assay": "cell-based or functional assay"}}, "note": "Positions of bridges follow the written chain, without caps; N, C: chain ends. Non-standard residues stand in square brackets, D forms with d. No end group written: not given here. dPhe(4-CF3) = N[C@H](Cc1ccc(C(F)(F)F)cc1)C(=O)O; dTrp(6-F) = N[C@H](Cc1c[nH]c2cc(F)ccc12)C(=O)O; R5 = C=CCCC[C@@](C)(N)C(=O)O"}
{"molecule": "ATSP-7041 (peptide)", "values": [{"measurement": "Kd", "setting": "[1]", "result": "< 1", "unit": "nM"}, {"measurement": "IC50 (read off the curve)", "setting": "[2]", "result": 500, "unit": "nM"}, {"measurement": "IC50 (read off the curve)", "setting": "MDM4 protein (human) [3]", "result": 1000, "unit": "nM"}, {"measurement": "Kd", "setting": "MDM4 protein (human) [4]", "result": 4.5, "unit": "nM"}, {"measurement": "Kd", "setting": "[5]", "result": 2, "unit": "nM"}]}
{"molecule": "CC(C)C[C@H]1NC(=O)[C@@H](CCCCN)NC(=O)[C@@H](CCC(=O)O)NC(=O)[C@@H](Cc2ccc(C(F)(F)F)cc2)NC(=O)[C@@H](CC(N)=O)NC(=O)[C@]2(CCC/C=C\\CCCCCC[C@](C)(C(N)=O)NC(=O)[C@@H](CC(C)C)NC1=O)CCC/C=C\\CCC[C@@](C)(N)C(=O)N[C@H](C)C(=O)N[C@H](Cc1c[nH]c3cc(F)ccc13)C(=O)N[C@H](Cc1ccc(O)cc1)C(=O)N2", "note": "[^DPMI-δ (1-5-12)]", "values": [{"measurement": "counterscreen activity", "setting": "[6]", "result": "negligible counter screen activity"}, {"measurement": "EC50", "setting": "[6]", "result": "≥ 50", "unit": "µM"}, {"measurement": "Western blot: stabilization of MDM2 and activation of p53", "setting": "HCT-116 cells", "result": "Stabilization of MDM2 and activation of p53"}, {"measurement": "Kd", "setting": "MDM2; Table 1", "result": "< 1", "unit": "nM"}, {"measurement": "Kd", "setting": "MDM2; Table 2", "result": "< 1", "unit": "nM"}, {"measurement": "LDH leakage", "setting": "HCT116 cells", "result": "No detectable LDH leakage"}, {"measurement": "CD (% helicity)", "setting": "[7]", "result": 52.1, "unit": "%"}, {"measurement": "CD (% helicity)", "setting": "[7]; listed as DPMI-δ(1,5,12)", "result": 52, "unit": "%"}, {"measurement": "CD (% helicity)", "setting": "[7]; listed as stitched peptide", "result": 52, "unit": "%"}, {"measurement": "Kd", "setting": "MDM4", "result": 12.5, "unit": "nM"}, {"measurement": "EC50", "setting": "[8]", "result": 4, "unit": "µM"}]}
{"molecule": "CC(=O)N[C@@H](CC(C)C)C(=O)N[C@H](C(=O)N[C@@H](Cc1ccccc1)C(=O)N[C@]1(C)CCCCCCC=CCCC[C@@](C)(C(=O)N[C@@H](CO)C(=O)N[C@@H](C)C(=O)N[C@@H](C)C(N)=O)NC(=O)[C@H](CC2CCC2)NC(=O)[C@H](CCC(N)=O)NC(=O)[C@H](C)NC(=O)[C@H](Cc2c[nH]c3ccccc23)NC(=O)[C@H](Cc2ccc(O)cc2)NC(=O)[C@H](CCC(=O)O)NC1=O)[C@@H](C)O", "note": "[ATSP-7041, reference compound]", "values": [{"measurement": "EC50", "setting": "[6]", "result": "≥ 50", "unit": "µM"}, {"measurement": "Western blot: stabilization of MDM2 and activation of p53", "setting": "HCT-116 cells", "result": "Stabilization of MDM2 and activation of p53"}, {"measurement": "EC50", "setting": "[8]", "result": 1.8, "unit": "µM"}]}
{"molecule": "[dT][dA][dTrp(6-F)][dY][R5][dN][dPhe(4-CF3)][dE][R5][dL][dL][dR]-NH2 (staple 5-9)", "note": "[^DPMI-δ(5-9)]", "values": [{"measurement": "Kd", "setting": "[9]", "result": "> 10000", "unit": "nM"}, {"measurement": "P53 activity EC50 (µM) (2% FBS) 16 H", "setting": "[10]", "result": "> 50", "unit": "µM"}]}
